For series [1], the target named is T1, Angiotensin-converting enzyme (Oryctolagus cuniculus) (UniProt P12822).
T1 sequence (whole entry): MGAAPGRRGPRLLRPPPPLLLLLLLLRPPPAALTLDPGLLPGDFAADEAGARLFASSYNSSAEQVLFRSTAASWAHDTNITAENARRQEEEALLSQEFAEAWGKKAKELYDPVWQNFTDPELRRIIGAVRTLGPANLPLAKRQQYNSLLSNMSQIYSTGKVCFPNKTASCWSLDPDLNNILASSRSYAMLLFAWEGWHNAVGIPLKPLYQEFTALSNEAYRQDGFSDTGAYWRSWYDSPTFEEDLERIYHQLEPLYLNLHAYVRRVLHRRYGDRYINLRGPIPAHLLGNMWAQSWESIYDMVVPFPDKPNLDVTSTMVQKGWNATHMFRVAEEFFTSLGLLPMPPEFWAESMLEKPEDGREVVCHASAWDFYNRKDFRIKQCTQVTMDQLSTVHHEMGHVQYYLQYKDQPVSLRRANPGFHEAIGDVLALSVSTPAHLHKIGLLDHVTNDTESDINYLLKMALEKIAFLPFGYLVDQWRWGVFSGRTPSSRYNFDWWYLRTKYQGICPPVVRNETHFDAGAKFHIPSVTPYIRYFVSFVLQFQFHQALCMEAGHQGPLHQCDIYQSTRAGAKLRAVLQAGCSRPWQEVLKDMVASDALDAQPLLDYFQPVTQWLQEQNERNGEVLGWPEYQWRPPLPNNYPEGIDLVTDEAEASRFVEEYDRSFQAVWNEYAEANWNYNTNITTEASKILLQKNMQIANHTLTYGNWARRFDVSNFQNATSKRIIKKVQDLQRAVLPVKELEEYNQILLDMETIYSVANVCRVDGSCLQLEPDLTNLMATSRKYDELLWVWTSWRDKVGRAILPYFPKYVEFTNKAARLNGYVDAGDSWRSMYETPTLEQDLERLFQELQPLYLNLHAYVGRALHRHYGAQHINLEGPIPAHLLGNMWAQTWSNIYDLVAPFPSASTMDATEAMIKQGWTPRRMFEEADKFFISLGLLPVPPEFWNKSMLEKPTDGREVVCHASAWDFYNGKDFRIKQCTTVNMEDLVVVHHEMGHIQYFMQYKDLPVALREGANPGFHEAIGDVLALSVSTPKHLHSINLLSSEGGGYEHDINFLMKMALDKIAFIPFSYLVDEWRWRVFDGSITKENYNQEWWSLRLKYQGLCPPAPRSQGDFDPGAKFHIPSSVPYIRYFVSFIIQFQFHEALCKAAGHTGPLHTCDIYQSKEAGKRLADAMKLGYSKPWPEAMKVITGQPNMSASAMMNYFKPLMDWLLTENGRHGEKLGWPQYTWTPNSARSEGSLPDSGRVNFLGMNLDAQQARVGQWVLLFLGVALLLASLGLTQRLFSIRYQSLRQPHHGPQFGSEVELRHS
In words: Inhibition of rabbit lung ACE assessed as hippuryl-histidyl-leucine hydrolysis at 1 uM after 30 mins by colorimetric method.

Series [2] has as its system ACE (rabbit lung). As to the kind of experiment: Ratio of IC50 for HEK cells to IC50 for rabbit lung ACE. It counts as cell-based, HEK293. The settings on record: read-out: Ratio IC50.
In series [3] the test system is ACE (rabbit lung). In words: Ratio of IC50 for human A549 cells to IC50 for rabbit lung ACE. The settings on record: read-out: Ratio IC50. In kind it is cell-based.
In series [4] the target is T2, Angiotensin-converting enzyme (Oryctolagus cuniculus, UniProt P12822).
T2 sequence (P12822 whole entry): T1 sequence (whole entry)
As to the kind of experiment: Inhibition of rabbit lung ACE assessed as hippuryl-histidyl-leucine hydrolysis after 30 mins by colorimetric method.

Where only a bound is given, the exact number is not on record here.

`CCCCc1nc(Cl)c(C(=O)N[C@@H](Cc2ccccc2)C(=O)OC)n1C`: the inhibition in series [1] was over 80%. Further, the selectivity ratio in series [2] and in series [3] was 1000 in each case. The IC50 in series [4] was 647 nM.
On to `CCCCc1nc(Cl)c(C(=O)N[C@@H](CO)C(=O)O)n1C`, for which the inhibition in series [1] amounted to 55%.
Take `CCCCc1nc(Cl)c(C(=O)N[C@@H](CC(C)C)C(=O)OC)n1C`: the inhibition in series [1] is 55%.
Regarding `CCCCc1nc(Cl)c(C(=O)N[C@@H](C)C(=O)OC)n1C`, in series [1], the inhibition is 55%.
Turning to `CCCCc1nc(Cl)c(C(=O)N[C@H](C(=O)OC)[C@H](C)O)n1C`, in series [1], the inhibition was found to be 55%.
For `CCCCc1nc(Cl)c(C(=O)N[C@@H](CCSC)C(=O)O)n1C`, in series [1], the inhibition is over 80%. The selectivity ratio in series [2] and in series [3] was 1000 in each case. Further, the IC50 in series [4] stood at 657 nM.
For the compound `CCCCc1nc(Cl)c(C(=O)NCC(=O)OC)n1C`, the inhibition in series [1] is 55%.
For the compound `CCCCc1nc(Cl)c(C(=O)NCC(=O)O)n1C`, the inhibition in series [1] was found to be 55%.
Consider `NCCCC[C@H](N[C@@H](CCc1ccccc1)C(=O)O)C(=O)N1CCC[C@H]1C(=O)O` [LISINOPRIL ANHYDROUS], for which the half-maximal inhibitory concentration (IC50) in series [4] is 318 nM.
As for `CCCCc1nc(Cl)c(C(=O)N[C@@H](CCSC)C(=O)OC)n1C`, in series [1], the inhibition was 55%.
In the case of `CCOC(=O)[C@H](CCc1ccccc1)N[C@H]1CCc2ccccc2N(CC(=O)O)C1=O` [BENAZEPRIL], in series [4], the half-inhibitory concentration (IC50) came to 100 nM.
In the case of `CCCCc1nc(Cl)c(C(=O)N[C@@H](Cc2ccccc2)C(=O)O)n1C`, in series [1], the inhibition amounted to 55%. The selectivity ratio in series [2] and in series [3] was 1000 in each case. Also, in series [4], the IC50 is 100 nM.
As to `CCCCc1nc(Cl)c(C(=O)N[C@@H](CO)C(=O)OC)n1C`, in series [1], the inhibition came to 55%.
On the same count and under the same terms, to `CCCCc1nc(Cl)c(C(=O)N[C@@H](C)C(=O)O)n1C` belongs 55%.
Still for that read-out and setting: to `CCCCc1nc(Cl)c(C(=O)N[C@@H](Cc2ccc(O)cc2)C(=O)OC)n1C` belongs 55%.
For `CCCCc1nc(Cl)c(C(=O)N[C@@H](Cc2c[nH]c3ccccc23)C(=O)OC)n1C`, in series [1], the inhibition is over 80%. Also, the selectivity ratio in series [2] and in series [3] was 1000 in each case. In series [4], the IC50 is 531 nM.
For the compound `CCCCc1nc(Cl)c(C(=O)N[C@H](C(=O)OC)C(C)C)n1C`, the inhibition in series [1] stood at 55%.
Take `CCCCc1nc(Cl)c(C(=O)N[C@@H](CC(C)C)C(=O)O)n1C`: the inhibition in series [1] is 55%.
In the case of `CCCCc1nc(Cl)c(C(=O)N[C@H](C(=O)O)[C@H](C)CC)n1C`, the inhibition in series [1] is over 80%. The selectivity ratio in series [2] and in series [3] was 1000 in each case. Besides, the IC50 in series [4] was found to be 1120 nM.
For `CCCCc1nc(Cl)c(C(=O)N[C@@H](Cc2c[nH]c3ccccc23)C(=O)O)n1C`, the inhibition in series [1] was over 80%.
On the same count and under the same terms, to `CCCCc1nc(Cl)c(C(=O)N[C@H](C(=O)OC)[C@H](C)CC)n1C` belongs 55%; to `CCCCc1nc(Cl)c(C(=O)N[C@@H](Cc2ccc(O)cc2)C(=O)O)n1C`, 55%; to `CCCCc1nc(Cl)c(C(=O)N[C@H](C(=O)O)[C@H](C)O)n1C`, 55%.
For the compound `CCCCc1nc(Cl)c(C(=O)N[C@H](C(=O)O)C(C)C)n1C`, the inhibition in series [1] was 55%.

What is called inhibition is the drop in the measured response relative to a control, in per cent. Broadly, the IC50 is the concentration needed to halve the response being measured.

The values above are taken from ChEMBL document CHEMBL3585246, “Design, synthesis and evaluation of novel 2-butyl-4-chloroimidazole derived peptidomimetics as Angiotensin Converting Enzyme (ACE) inhibitors” (Bioorg Med Chem, 2015).
